Molecular target: T1, human metabotropic glutamate receptor 5 (hmGluR5) (Homo sapiens, UniProt P41594)
T1 construct: expressed in transfected cells
Test: Calcium mobilization (FLIPR) assay for negative allosteric modulation, EC80 glutamate, hmGluR5 in HEK 293
Format: cell-based
Conditions: HEK293; hmGluR5, inhibition of EC80 glutamate response; read-out: FLIPR maximum inhibition
Description: The cDNA for rat metabotropic glutamate receptor 5 (rmGluR5) and the cDNA for human metabotropic glutamate receptor 5 (hmGluR5) were generous gifts from S. Nakanishi (Kyoto University, Kyoto, Japan). The rmGluR5 or hmGluR5 was stably expressed in a HEK 293 cell line and grown in Dulbecco's Modified Eagle Medium (DMEM) (Invitrogen, Carlsbad, Calif.) with supplements (10% bovine calf serum, 4 mM glutamine, 100 units/mL penicillin, 100 μg/mL streptomycin and 0.75 mM G1418) at 37° C., 5% CO2. Twenty-four hours prior to assay, cells were seeded into 384-well black wall microtiter plates coated with poly-D-lysine. Just prior to assay, media was aspirated and cells dye-loaded (25 μL/well) with 3 μM Fluo-4/0.01% pluronic acid in assay buffer (Hank's Balanced Saline Solution (HBSS)): 150 mM NaCl, 5 mM KCl, 1 mM CaCl2, 1 mM MgCl2, plus 20 mM N-2-Hydroxyethylpiperazine-N′-2-ethanesulfonic acid (HEPES), pH 7.4, 0.1% bovine serum albumin (BSA) and 2.5 mM probenicid) for 1 hour in 5% CO2 at 37° C. After excess dye was discarded, cells were washed in assay buffer and layered with a final volume equal to 30 μL/well. Basal fluorescence is monitored in a fluorometric imaging plate reader (FLIPR) (Molecular Devices, Sunnyvale, Calif.) with an excitation wavelength of 488 nm and an emission range of 500 to 560 nm. Laser excitation energy was adjusted so that basal fluorescence readings were approximately 10,000 relative fluorescent units. Cells were stimulated with an EC20 or an EC80 concentration of glutamate in the presence of a compound to be tested, both diluted in assay buffer, and relative fluorescent units were measured at defined intervals (exposure=0.6 sec) over a 3 min period at room temperature. Basal readings derived from negative controls were subtracted from all samples. Maximum change in fluorescence was calculated for each well. Concentration-response curves derived from the maximum change in fluorescence were analyzed by nonlinear regression (Hill equation). A negative modulator can be identified from these concentration-response curves if a compound produces a concentration dependent inhibition of the EC80 glutamate response.

T1 sequence (P41594 21-1212): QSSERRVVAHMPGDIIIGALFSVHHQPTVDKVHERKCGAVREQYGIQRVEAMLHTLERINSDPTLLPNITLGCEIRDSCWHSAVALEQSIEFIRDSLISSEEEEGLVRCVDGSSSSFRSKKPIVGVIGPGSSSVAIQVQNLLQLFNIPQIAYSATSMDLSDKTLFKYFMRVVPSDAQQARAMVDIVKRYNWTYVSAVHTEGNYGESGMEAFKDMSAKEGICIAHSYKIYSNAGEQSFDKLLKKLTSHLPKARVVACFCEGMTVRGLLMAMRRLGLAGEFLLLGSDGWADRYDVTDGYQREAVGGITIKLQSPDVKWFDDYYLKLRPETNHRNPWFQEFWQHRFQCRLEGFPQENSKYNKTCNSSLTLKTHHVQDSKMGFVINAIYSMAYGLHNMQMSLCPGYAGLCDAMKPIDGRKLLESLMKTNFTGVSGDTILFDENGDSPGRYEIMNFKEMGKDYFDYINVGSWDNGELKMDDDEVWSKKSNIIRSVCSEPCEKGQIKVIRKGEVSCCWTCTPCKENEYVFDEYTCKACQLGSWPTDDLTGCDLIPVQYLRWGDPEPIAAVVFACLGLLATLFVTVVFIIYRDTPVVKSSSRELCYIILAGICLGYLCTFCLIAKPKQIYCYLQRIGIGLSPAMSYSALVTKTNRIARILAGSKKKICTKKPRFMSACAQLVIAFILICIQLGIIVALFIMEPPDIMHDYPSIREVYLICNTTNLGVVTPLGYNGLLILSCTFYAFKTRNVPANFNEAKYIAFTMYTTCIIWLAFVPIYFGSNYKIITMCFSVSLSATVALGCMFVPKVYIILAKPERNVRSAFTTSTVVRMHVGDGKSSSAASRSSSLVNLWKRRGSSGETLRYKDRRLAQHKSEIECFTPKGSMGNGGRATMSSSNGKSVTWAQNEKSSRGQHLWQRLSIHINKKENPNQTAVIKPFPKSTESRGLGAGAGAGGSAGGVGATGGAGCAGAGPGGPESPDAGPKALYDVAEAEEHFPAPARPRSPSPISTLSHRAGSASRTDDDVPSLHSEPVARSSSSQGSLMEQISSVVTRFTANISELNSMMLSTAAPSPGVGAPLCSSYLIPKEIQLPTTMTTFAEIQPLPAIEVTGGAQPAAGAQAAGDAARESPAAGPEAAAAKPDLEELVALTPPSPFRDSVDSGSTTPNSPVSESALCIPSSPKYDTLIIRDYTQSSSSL

SMILES	Emax
Cc1nccc(N2CC[C@]3(CCC[C@H](NC(=O)c4cccc(Cl)c4)C3)C2=O)n1 (racemic) [Example 58]	73 to 95%
Cc1nccc(C(=O)N[C@H]2CCC[C@]3(CCN(c4cc(F)cc(F)c4)C3=O)C2)n1 (racemic) [Example 76, cis 2-Methyl-pyrimidine-4-carboxylic acid [2-(3,5-difluoro-phenyl)-1-oxo-2-aza-spiro[4.5]dec-7-yl]-amide]	73 to 95%
Cc1cc(C(=O)N[C@H]2CCC[C@]3(CCN(c4cccc(F)c4)C3=O)C2)ccn1 (racemic) [Example 78, cis-N-[2-(3-Fluoro-phenyl)-1-oxo-2-aza-spiro[4.5]dec-7-yl]-2-methyl-isonicotinamide]	73 to 95%
Cc1cccc(C(=O)N[C@H]2CCC[C@]3(CCN(c4ccnc(C)n4)C3=O)C2)c1 (racemic) [Example 84, cis-3-Methyl-N-[2-(2-methyl-pyrimidin-4-yl)-1-oxo-2-aza-spiro [4.5]dec-7-yl]-benzamide]	73 to 95%
O=C(N[C@@H]1CC(F)(F)C[C@@]2(CCN(c3cccc(F)c3)C2=O)C1)c1ccccn1 (racemic) [Example 97, cis-Pyridine-2-carboxylic acid [9,9-difluoro-2-(3-fluoro-phenyl)-1-oxo-2-aza-spiro[4.5]dec-7-yl]-amide]	88 to 93%
Cc1cccc(C(=O)N[C@@H]2CC(F)(F)C[C@@]3(CCN(c4ccc(F)cn4)C3=O)C2)n1 (racemic) [Example 109, cis-6-Methyl-pyridine-2-carboxylic acid [9,9-difluoro-2-(5-fluoro-pyridin-2-yl)-1-oxo-2-aza-spiro[4.5]dec-7-yl]-amide]	47 to 93%
O=C(N[C@@H]1CC(F)(F)C[C@@]2(CCN(c3cc(F)cc(F)c3)C2=O)C1)c1ccccn1 (racemic) [Example 110, cis-Pyridine-2-carboxylic acid [2-(3,5-difluoro-phenyl)-9,9-difluoro-1-oxo-2-aza-spiro[4.5]dec-7-yl]-amide]	47 to 93%
Cc1nccc(N2CC[C@@]3(C[C@@H](NC(=O)c4cccc(F)c4)CC(F)(F)C3)C2=O)n1 (racemic) [Example 128, cis-N-[9,9-Difluoro-2-(2-methyl-pyrimidin-4-yl)-1-oxo-2-aza-spiro[4.5]dec-7-yl]-3-fluoro-benzamide]	47 to 93%
Cc1nccc(C(=O)N[C@@H]2CC(F)(F)C[C@@]3(CCN(c4cccc(F)c4)C3=O)C2)n1 (racemic) [Example 129, cis-2-Methyl-pyrimidine-4-carboxylic acid [9,9-difluoro-2-(3-fluoro-phenyl)-1-oxo-2-aza-spiro[4.5]dec-7-yl]-amide]	47 to 93%
Cc1cncc(N2CC[C@]3(CCC[C@H](NC(=O)c4ccnc(C)n4)C3)C2=O)n1 (relative stereo) [Example 59, cis-2-Methyl-pyrimidine-4-carboxylic acid [2-(6-methyl-pyrazin-2-yl)-1-oxo-2-aza-spiro[4.5]dec-7-yl]-amide]	73 to 95%
Cc1nccc(C(=O)N[C@H]2CCC[C@]3(CCN(c4cccc(C#N)c4)C3=O)C2)n1 (relative stereo) [Example 60, cis-2-Methyl-pyrimidine-4-carboxylic acid [2-(3-cyano-phenyl)-1-oxo-2-aza-spiro [4.5]dec-7-yl]-amide]	73 to 95%
Cc1nccc(C(=O)N[C@H]2CCC[C@]3(CCN(c4cccc(C(F)(F)F)n4)C3=O)C2)n1 (relative stereo) [Example 61, cis-2-Methyl-pyrimidine-4-carboxylic acid [1-oxo-2-(6-trifluoromethyl-pyridin-2-yl)-2-aza-spiro[4.5]dec-7-yl]-amide]	73 to 95%
Cc1cccc(C(=O)N[C@H]2CCC[C@]3(CCN(c4ccnc(C)n4)C3=O)C2)n1 (relative stereo) [Example 62, cis-6-methyl-pyridine-2-carboxylic acid [2-(2-methyl-pyrimidin-4-yl)-1-oxo-2-aza-spiro[4.5]dec-7-yl]-amide]	73 to 95%
Cc1ccc(N2CC[C@]3(CCC[C@H](NC(=O)c4cccc(C)n4)C3)C2=O)cn1 (relative stereo) [Example 63, cis-6-Methyl-pyridine-2-carboxylic acid [2-(6-methyl-pyridin-3-yl)-1-oxo-2-aza-spiro[4.5]dec-7-yl]-amide]	73 to 95%
Cc1cccc(C(=O)N[C@H]2CCC[C@]3(CCN(c4cncc(F)c4)C3=O)C2)n1 (relative stereo) [Example 64, cis-6-Methyl-pyridine-2-carboxylic acid [2-(5-fluoro-pyridin-3-yl)-1-oxo-2-aza-spiro[4.5]dec-7-yl]-amide]	73 to 95%
Cc1nccc(N2CC[C@]3(CCC[C@H](NC(=O)c4cccc(F)c4)C3)C2=O)n1 (relative stereo) [Example 65, cis-3-Fluoro-N-[2-(2-methyl-pyrimidin-4-yl)-1-oxo-2-aza-spiro[4.5]dec-7-yl]-benzamide]	73 to 95%
Cc1cc(N2CC[C@]3(CCC[C@H](NC(=O)c4cccc(F)c4)C3)C2=O)ccn1 (relative stereo) [Example 66, cis-3-Fluoro-N-[2-(2-methyl-pyridin-4-yl)-1-oxo-2-aza-spiro[4.5]dec-7-yl]-benzamide]	73 to 95%
O=C(N[C@H]1CCC[C@]2(CCN(c3cccc(F)c3)C2=O)C1)c1ccc(F)cn1 (relative stereo) [Example 68, cis-5-Fluoro-pyridine-2-carboxylic acid [2-(3-fluoro-phenyl)-1-oxo-2-aza-spiro [4.5]dec-7-yl]-amide]	73 to 95%
Cc1nccc(C(=O)N[C@H]2CCC[C@]3(CCN(c4cccc(F)c4)C3=O)C2)n1 (relative stereo) [Example 69, cis-2-Methyl-pyrimidine-4-carboxylic acid [2-(3-fluoro-phenyl)-1-oxo-2-aza-spiro[4.5]dec-7-yl]-amide]	73 to 95%
O=C(N[C@H]1CCC[C@]2(CCN(c3cccc(F)c3)C2=O)C1)c1ccncn1 (relative stereo) [Example 70, cis-Pyrimidine-4-carboxylic acid [2-(3-fluoro-phenyl)-1-oxo-2-aza-spiro [4.5]dec-7-yl]-amide]	73 to 95%
Cc1cncc(N2CC[C@]3(CCC[C@H](NC(=O)c4cccc(C)n4)C3)C2=O)c1 (relative stereo) [Example 71, cis-6-Methyl-pyridine-2-carboxylic acid [2-(5-methyl-pyridin-3-yl)-1-oxo-2-aza-spiro[4.5]dec-7-yl]-amide]	73 to 95%
COc1cccc(N2CC[C@]3(CCC[C@H](NC(=O)c4cccc(C)n4)C3)C2=O)c1 (relative stereo) [Example 72, cis-6-Methyl-pyridine-2-carboxylic acid [2-(3-methoxy-phenyl)-1-oxo-2-aza-spiro[4.5]dec-7-yl]-amide]	73 to 95%
O=C(N[C@H]1CCC[C@]2(CCN(c3cncc(F)c3)C2=O)C1)c1ccccn1 (relative stereo) [Example 74, cis-Pyridine-2-carboxylic acid [2-(5-fluoro-pyridin-3-yl)-1-oxo-2-aza-spiro[4.5]dec-7-yl]-amide]	73 to 95%
O=C(N[C@H]1CCC[C@]2(CCN(c3ccc(F)c(F)c3)C2=O)C1)c1ccccn1 (relative stereo) [Example 75, cis-Pyridine-2-carboxylic acid [2-(3,4-difluoro-phenyl)-1-oxo-2-aza-spiro[4.5]dec-7-yl]-amide]	73 to 95%
O=C(N[C@H]1CCC[C@]2(CCN(c3cccc(F)c3)C2=O)C1)c1ccncc1 (relative stereo) [Example 77, cis-N-[2-(3-Fluoro-phenyl)-1-oxo-2-aza-spiro[4.5]dec-7-yl]-isonicotinamide]	73 to 95%
O=C(N[C@H]1CCC[C@]2(CCN(c3cc(F)cc(F)c3)C2=O)C1)c1ccncn1 (relative stereo) [Example 79, cis-Pyrimidine-4-carboxylic acid [2-(3,5-difluoro-phenyl)-1-oxo-2-azaspiro[4.5]dec-7-yl]-amide]	73 to 95%
Cc1cccc(C(=O)N[C@H]2CCC[C@]3(CCN(Cc4ccccc4)C3=O)C2)n1 (relative stereo) [Example 83, cis-6-methyl-pyridine-2-carboxylic acid (2-benzyl-1-oxo-2-aza-spiro[4.5]dec-7-yl)-amide]	73 to 95%
Cc1nccc(N2CC[C@]3(CCC[C@H](NC(=O)c4cc(F)cc(F)c4)C3)C2=O)n1 (relative stereo) [Example 85, cis-3,5-Difluoro-N-[2-(2-methyl-pyrimidin-4-yl)-1-oxo-2-aza-spiro [4.5]dec-7-yl]-benzamide]	73 to 95%
Cc1cncc(C(=O)N[C@H]2CCC[C@]3(CCN(c4cc(-c5ccc(F)cc5)ncn4)C3=O)C2)n1 (relative stereo) [Example 86, cis-6-Methyl-pyrazine-2-carboxylic acid {2-[6-(4-fluoro-phenyl)-pyrimidin-4-yl]-1-oxo-2-aza-spiro [4.5]dec-7-yl}-amide]	73 to 95%
